The source of these data is ChEMBL document CHEMBL1800032, “Allosteric and ATP-competitive kinase inhibitors of mTOR for cancer treatment” (Bioorg Med Chem Lett, 2010).

The assay has as its target Serine/threonine-protein kinase mTOR (Homo sapiens, UniProt P42345). Kind of assay: Inhibition of recombinant mTOR assessed as inhibition of S6K T389 phosphorylation by DELFIA assay.

As for `COC(=O)Nc1ccc(-c2nc(N3CCOCC3)c3cnn(C4CCN(C(=O)OC)CC4)c3n2)cc1`, the half-inhibitory concentration (IC50) was 5 nM.
